According to ChEMBL document CHEMBL1155237, “Selective inhibitors of the mutant B-Raf pathway: discovery of a potent and orally bioavailable aminoisoquinoline” (J Med Chem, 2009):

Assays:
[1] = target: TGF-beta receptor type-1 (Homo sapiens) (UniProt P36897); experiment: Inhibition of TGFBR1 assessed as enzyme activity at 1 uM relative to untreated control; design: scale not given: the % may be the effect or the level left
[2] = target: Serine/threonine-protein kinase LATS2 (Homo sapiens) (UniProt Q9NRM7); experiment: Inhibition of LATS2 assessed as enzyme activity at 1 uM relative to untreated control; design: scale not given: the % may be the effect or the level left
[3] = target: Dual specificity protein kinase CLK3 (Homo sapiens) (UniProt P49761); experiment: Inhibition of CLK3 assessed as enzyme activity at 1 uM relative to untreated control; design: scale not given: the % may be the effect or the level left
[4] = tested on: Proto-oncogene tyrosine-protein kinase receptor Ret (Homo sapiens), P07949 [M918T]; experiment: Inhibition of RET M918T mutant assessed as enzyme activity at 1 uM relative to untreated control; design: scale not given: the % may be the effect or the level left
Chain of Proto-oncogene tyrosine-protein kinase receptor Ret (Homo sapiens), P07949 [M918T] (P07949 whole entry M918T): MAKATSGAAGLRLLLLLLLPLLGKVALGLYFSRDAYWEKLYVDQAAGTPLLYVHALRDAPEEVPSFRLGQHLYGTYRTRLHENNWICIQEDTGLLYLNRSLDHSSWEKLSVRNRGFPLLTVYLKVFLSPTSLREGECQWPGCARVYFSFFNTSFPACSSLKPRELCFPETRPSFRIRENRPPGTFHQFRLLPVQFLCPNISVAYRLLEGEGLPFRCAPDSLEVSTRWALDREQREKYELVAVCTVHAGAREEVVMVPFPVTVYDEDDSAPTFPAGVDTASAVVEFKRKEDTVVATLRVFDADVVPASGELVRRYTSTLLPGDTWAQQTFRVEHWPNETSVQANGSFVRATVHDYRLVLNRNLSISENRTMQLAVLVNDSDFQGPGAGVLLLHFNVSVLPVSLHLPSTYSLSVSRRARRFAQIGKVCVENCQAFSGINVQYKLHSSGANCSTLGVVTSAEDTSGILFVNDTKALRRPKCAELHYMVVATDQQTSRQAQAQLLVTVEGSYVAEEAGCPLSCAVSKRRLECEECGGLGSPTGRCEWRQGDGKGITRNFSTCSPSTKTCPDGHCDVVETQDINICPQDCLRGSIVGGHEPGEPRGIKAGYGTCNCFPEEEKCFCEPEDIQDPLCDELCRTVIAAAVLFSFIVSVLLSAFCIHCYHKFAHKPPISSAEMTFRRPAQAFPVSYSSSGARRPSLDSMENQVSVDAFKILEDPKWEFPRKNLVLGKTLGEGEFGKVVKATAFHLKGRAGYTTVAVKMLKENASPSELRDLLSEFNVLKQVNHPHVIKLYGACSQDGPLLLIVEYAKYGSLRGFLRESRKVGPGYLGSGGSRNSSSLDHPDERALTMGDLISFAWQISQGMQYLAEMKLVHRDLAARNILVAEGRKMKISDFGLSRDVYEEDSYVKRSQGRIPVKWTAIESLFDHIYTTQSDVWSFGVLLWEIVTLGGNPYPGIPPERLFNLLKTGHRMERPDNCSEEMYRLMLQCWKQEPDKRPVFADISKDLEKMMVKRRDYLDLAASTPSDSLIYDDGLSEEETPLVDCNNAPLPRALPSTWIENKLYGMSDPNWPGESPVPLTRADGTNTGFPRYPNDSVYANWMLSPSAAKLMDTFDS

[5] = target: Epidermal growth factor receptor (Homo sapiens) (UniProt P04626+P00533+Q15303+P21860); experiment: Inhibition of EGFR L747-T751del,Sins mutant assessed as enzyme activity at 1 uM relative to untreated control; format: protein assay; design: scale not given: the % may be the effect or the level left
[6] = target: Mitogen-activated protein kinase 6 (Homo sapiens) (UniProt Q16659); experiment: Inhibition of ERK3 assessed as enzyme activity at 1 uM relative to untreated control; design: scale not given: the % may be the effect or the level left
[7] = target: Serine/threonine-protein kinase DCLK3 (Homo sapiens) (UniProt Q9C098); experiment: Inhibition of DCAMKL3 assessed as enzyme activity at 1 uM relative to untreated control; design: scale not given: the % may be the effect or the level left
[8] = target: Serine/threonine-protein kinase STK11 (Homo sapiens) (UniProt Q15831); experiment: Inhibition of LKB1 assessed as enzyme activity at 1 uM relative to untreated control; design: scale not given: the % may be the effect or the level left
[9] = target: Ephrin type-A receptor 5 (Homo sapiens) (UniProt P54756); experiment: Inhibition of EPHA5 assessed as enzyme activity at 1 uM relative to untreated control; design: scale not given: the % may be the effect or the level left
[10] = target: NT-3 growth factor receptor (Homo sapiens) (UniProt Q16288); experiment: Inhibition of TRKC assessed as enzyme activity at 1 uM relative to untreated control; design: scale not given: the % may be the effect or the level left
[11] = target: Calcium/calmodulin-dependent protein kinase kinase 1 (Homo sapiens) (UniProt Q8N5S9); experiment: Inhibition of CAMKK1 assessed as enzyme activity at 1 uM relative to untreated control; design: scale not given: the % may be the effect or the level left
[12] = target: Serine/threonine-protein kinase pim-2 (Homo sapiens) (UniProt Q9P1W9); experiment: Inhibition of PIM2 assessed as enzyme activity at 1 uM relative to untreated control; design: scale not given: the % may be the effect or the level left
[13] = target: MAP kinase-interacting serine/threonine-protein kinase 1 (Homo sapiens) (UniProt Q9BUB5); experiment: Inhibition of MKNK1 assessed as enzyme activity at 1 uM relative to untreated control; design: scale not given: the % may be the effect or the level left
Chain of MAP kinase-interacting serine/threonine-protein kinase 1 (Homo sapiens) (Q9BUB5 whole entry, looked up): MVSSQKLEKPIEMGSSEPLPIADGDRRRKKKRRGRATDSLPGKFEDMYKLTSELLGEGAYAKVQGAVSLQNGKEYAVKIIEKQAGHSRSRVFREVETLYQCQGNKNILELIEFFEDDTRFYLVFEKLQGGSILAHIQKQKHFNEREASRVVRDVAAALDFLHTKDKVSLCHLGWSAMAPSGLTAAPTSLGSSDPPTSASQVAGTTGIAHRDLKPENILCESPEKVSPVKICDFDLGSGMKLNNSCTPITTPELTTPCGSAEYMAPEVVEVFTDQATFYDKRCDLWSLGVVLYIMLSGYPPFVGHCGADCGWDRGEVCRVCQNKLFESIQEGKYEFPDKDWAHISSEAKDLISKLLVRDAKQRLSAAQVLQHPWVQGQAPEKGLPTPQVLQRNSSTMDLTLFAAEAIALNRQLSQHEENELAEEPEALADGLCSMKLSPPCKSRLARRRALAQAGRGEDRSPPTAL

[14] = tested on: Mast/stem cell growth factor receptor Kit (Homo sapiens), P10721 [V559D]; experiment: Inhibition of KIT V559D mutant assessed as enzyme activity at 1 uM relative to untreated control; design: scale not given: the % may be the effect or the level left
[15] = tested on: Tyrosine-protein kinase ABL1 (Homo sapiens), P00519 [Q252H]; experiment: Inhibition of ABL1 Q252H mutant assessed as enzyme activity at 1 uM relative to untreated control; design: scale not given: the % may be the effect or the level left
[16] = Oral bioavailability in Sprague-Dawley rat at 5 mg/kg; format: ADME, organism-based; conditions: in vivo
[17] = target: Non-receptor tyrosine-protein kinase TYK2 (Homo sapiens) (UniProt P29597); experiment: Inhibition of TYK2 kinase domain 2 assessed as enzyme activity at 1 uM relative to untreated control; design: scale not given: the % may be the effect or the level left
[18] = tested on: Proto-oncogene tyrosine-protein kinase receptor Ret (Homo sapiens), P07949 [V804M]; experiment: Inhibition of RET V804M mutant assessed as enzyme activity at 1 uM relative to untreated control; design: scale not given: the % may be the effect or the level left
[19] = target: Interferon-induced, double-stranded RNA-activated protein kinase (Homo sapiens) (UniProt P19525); experiment: Inhibition of PRKR assessed as enzyme activity at 1 uM relative to untreated control; design: scale not given: the % may be the effect or the level left
[20] = target: Calcium/calmodulin-dependent protein kinase type 1G (Homo sapiens) (UniProt Q96NX5); experiment: Inhibition of CAMK1G assessed as enzyme activity at 1 uM relative to untreated control; design: scale not given: the % may be the effect or the level left
[21] = target: Glycogen synthase kinase-3 alpha (Homo sapiens) (UniProt P49840); experiment: Inhibition of GSK3A assessed as enzyme activity at 1 uM relative to untreated control; design: scale not given: the % may be the effect or the level left
Chain of Glycogen synthase kinase-3 alpha (Homo sapiens) (P49840 2-483 limits assumed): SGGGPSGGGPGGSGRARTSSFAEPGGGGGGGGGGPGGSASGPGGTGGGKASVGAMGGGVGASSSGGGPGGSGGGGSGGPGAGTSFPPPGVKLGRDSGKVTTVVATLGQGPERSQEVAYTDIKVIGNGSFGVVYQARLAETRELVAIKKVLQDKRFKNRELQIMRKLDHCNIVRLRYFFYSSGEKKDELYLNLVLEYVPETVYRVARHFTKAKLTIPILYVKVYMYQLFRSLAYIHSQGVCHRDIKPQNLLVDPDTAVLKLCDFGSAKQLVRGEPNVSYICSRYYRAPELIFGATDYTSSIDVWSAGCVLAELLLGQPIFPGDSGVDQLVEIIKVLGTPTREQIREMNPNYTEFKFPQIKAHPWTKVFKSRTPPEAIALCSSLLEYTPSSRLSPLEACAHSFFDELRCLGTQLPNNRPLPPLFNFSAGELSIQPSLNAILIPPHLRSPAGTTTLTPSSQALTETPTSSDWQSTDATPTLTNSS

[22] = target: Citron Rho-interacting kinase (Homo sapiens) (UniProt O14578); experiment: Inhibition of CIT assessed as enzyme activity at 1 uM relative to untreated control; design: scale not given: the % may be the effect or the level left
[23] = target: Glycogen synthase kinase-3 beta (Homo sapiens) (UniProt P49841); experiment: Inhibition of GSK3B assessed as enzyme activity at 1 uM relative to untreated control; design: scale not given: the % may be the effect or the level left
Chain of Glycogen synthase kinase-3 beta (Homo sapiens) (P49841 whole entry, looked up): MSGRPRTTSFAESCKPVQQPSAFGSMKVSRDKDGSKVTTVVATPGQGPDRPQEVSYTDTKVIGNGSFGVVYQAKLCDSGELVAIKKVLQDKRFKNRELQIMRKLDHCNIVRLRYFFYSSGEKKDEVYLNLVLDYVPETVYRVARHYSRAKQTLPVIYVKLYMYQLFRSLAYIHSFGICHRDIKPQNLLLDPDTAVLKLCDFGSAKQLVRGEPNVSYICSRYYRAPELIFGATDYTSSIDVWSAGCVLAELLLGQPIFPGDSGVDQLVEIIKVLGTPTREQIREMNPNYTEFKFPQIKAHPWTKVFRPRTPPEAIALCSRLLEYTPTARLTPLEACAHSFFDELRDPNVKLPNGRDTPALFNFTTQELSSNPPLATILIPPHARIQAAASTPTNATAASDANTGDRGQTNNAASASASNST

[24] = target: Serine/threonine-protein kinase MARK1 (Homo sapiens) (UniProt Q9P0L2); experiment: Inhibition of MARK1 assessed as enzyme activity at 1 uM relative to untreated control; design: scale not given: the % may be the effect or the level left
[25] = target: Protein kinase C delta type (Homo sapiens) (UniProt Q05655); experiment: Inhibition of PRKCdelta assessed as enzyme activity at 1 uM relative to untreated control; design: scale not given: the % may be the effect or the level left
Chain of Protein kinase C delta type (Homo sapiens) (Q05655 whole entry, looked up): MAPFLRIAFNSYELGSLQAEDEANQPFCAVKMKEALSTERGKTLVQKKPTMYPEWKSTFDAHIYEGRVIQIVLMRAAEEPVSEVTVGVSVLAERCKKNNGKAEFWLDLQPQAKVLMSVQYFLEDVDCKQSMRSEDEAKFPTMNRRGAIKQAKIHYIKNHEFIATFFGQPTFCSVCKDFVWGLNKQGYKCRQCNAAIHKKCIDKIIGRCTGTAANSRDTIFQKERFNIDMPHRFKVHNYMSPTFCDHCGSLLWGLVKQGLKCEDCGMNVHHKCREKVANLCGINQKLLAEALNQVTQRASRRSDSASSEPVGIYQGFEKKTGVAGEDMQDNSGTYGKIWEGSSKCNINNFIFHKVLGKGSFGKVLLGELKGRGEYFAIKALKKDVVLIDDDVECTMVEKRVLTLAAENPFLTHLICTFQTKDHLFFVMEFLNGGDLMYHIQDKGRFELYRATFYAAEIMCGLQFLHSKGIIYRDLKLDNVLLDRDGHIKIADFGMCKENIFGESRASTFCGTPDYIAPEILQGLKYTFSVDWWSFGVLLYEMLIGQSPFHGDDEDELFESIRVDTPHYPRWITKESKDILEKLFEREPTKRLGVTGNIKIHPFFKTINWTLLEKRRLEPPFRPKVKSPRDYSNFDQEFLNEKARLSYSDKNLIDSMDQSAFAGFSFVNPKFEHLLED

[26] = target: Inhibitor of nuclear factor kappa-B kinase subunit epsilon (Homo sapiens) (UniProt Q14164); experiment: Inhibition of IKK-epsilon assessed as enzyme activity at 1 uM relative to untreated control; design: scale not given: the % may be the effect or the level left
[27] = target: Serine/threonine-protein kinase D2 (Homo sapiens) (UniProt Q9BZL6); experiment: Inhibition of PRKD2 assessed as enzyme activity at 1 uM relative to untreated control; design: scale not given: the % may be the effect or the level left
[28] = target: MAP kinase-activated protein kinase 2 (Homo sapiens) (UniProt P49137); experiment: Inhibition of MAPKAPK2 assessed as enzyme activity at 1 uM relative to untreated control; design: scale not given: the % may be the effect or the level left
[29] = target: Epidermal growth factor receptor (Homo sapiens) (UniProt P00533); experiment: Inhibition of EGFR assessed as enzyme activity at 1 uM relative to untreated control; design: scale not given: the % may be the effect or the level left
[30] = target: Protein kinase C epsilon type (Homo sapiens) (UniProt Q02156); experiment: Inhibition of PRKCE assessed as enzyme activity at 1 uM relative to untreated control; design: scale not given: the % may be the effect or the level left
[31] = target: Aurora kinase C (Homo sapiens) (UniProt Q9UQB9); experiment: Inhibition of AURKC assessed as enzyme activity at 1 uM relative to untreated control; design: scale not given: the % may be the effect or the level left
[32] = target: 5'-AMP-activated protein kinase catalytic subunit alpha-1 (Homo sapiens) (UniProt Q13131); experiment: Inhibition of AMPKalpha1 assessed as enzyme activity at 1 uM relative to untreated control; design: scale not given: the % may be the effect or the level left
[33] = target: Ribosomal protein S6 kinase alpha-1 (Homo sapiens) (UniProt Q15418); experiment: Inhibition of RPS6KA1 kinase domain 1 assessed as enzyme activity at 1 uM relative to untreated control; design: scale not given: the % may be the effect or the level left
Chain of Ribosomal protein S6 kinase alpha-1 (Homo sapiens) (Q15418 whole entry, the tested form may be a part): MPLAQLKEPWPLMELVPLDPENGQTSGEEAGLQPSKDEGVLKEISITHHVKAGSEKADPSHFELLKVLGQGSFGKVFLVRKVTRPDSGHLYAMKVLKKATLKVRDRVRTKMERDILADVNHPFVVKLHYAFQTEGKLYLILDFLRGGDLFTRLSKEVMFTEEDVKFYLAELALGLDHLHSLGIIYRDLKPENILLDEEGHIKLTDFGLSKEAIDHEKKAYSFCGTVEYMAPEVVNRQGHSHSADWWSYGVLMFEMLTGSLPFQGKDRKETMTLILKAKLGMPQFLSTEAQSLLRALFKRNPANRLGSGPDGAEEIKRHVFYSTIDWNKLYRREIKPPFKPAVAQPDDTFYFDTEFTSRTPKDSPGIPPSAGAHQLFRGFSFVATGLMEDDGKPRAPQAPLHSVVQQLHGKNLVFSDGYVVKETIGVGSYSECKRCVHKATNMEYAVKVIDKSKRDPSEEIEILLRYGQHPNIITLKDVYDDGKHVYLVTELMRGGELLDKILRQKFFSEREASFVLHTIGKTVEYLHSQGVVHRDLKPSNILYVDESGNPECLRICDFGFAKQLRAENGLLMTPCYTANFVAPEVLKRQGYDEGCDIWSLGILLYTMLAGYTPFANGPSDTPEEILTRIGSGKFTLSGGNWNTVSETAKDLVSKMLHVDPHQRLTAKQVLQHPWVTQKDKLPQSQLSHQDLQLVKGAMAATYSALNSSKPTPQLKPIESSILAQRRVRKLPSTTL

[34] = target: Mitogen-activated protein kinase 15 (Homo sapiens) (UniProt Q8TD08); experiment: Inhibition of ERK8 assessed as enzyme activity at 1 uM relative to untreated control; design: scale not given: the % may be the effect or the level left
Chain of Mitogen-activated protein kinase 15 (Homo sapiens) (Q8TD08 whole entry): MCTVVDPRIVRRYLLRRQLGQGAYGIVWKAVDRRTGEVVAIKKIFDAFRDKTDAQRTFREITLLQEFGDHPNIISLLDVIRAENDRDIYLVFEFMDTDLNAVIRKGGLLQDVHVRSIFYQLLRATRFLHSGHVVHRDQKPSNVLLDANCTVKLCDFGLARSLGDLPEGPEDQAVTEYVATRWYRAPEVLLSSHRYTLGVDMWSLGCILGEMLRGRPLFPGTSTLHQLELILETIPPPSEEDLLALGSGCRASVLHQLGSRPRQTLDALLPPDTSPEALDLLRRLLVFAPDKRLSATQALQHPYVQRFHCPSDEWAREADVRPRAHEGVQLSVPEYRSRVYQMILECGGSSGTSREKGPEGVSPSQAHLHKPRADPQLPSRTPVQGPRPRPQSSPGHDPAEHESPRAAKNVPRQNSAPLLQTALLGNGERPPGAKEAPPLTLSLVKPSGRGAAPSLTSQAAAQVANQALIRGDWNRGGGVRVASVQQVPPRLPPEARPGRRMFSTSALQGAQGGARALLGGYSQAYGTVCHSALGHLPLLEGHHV

[35] = target: Cyclin-dependent kinase 9 (Homo sapiens) (UniProt P50750); experiment: Inhibition of CDK9 assessed as enzyme activity at 1 uM relative to untreated control; design: scale not given: the % may be the effect or the level left
[36] = tested on: Tyrosine-protein kinase ABL1 (Homo sapiens), P00519 [E255K]; experiment: Inhibition of ABL1 E255K mutant assessed as enzyme activity at 1 uM relative to untreated control; design: scale not given: the % may be the effect or the level left
[37] = target: BDNF/NT-3 growth factors receptor (Homo sapiens) (UniProt Q16620); experiment: Inhibition of TRKB assessed as enzyme activity at 1 uM relative to untreated control; design: scale not given: the % may be the effect or the level left

Chain of TGF-beta receptor type-1 (Homo sapiens) (P36897 whole entry): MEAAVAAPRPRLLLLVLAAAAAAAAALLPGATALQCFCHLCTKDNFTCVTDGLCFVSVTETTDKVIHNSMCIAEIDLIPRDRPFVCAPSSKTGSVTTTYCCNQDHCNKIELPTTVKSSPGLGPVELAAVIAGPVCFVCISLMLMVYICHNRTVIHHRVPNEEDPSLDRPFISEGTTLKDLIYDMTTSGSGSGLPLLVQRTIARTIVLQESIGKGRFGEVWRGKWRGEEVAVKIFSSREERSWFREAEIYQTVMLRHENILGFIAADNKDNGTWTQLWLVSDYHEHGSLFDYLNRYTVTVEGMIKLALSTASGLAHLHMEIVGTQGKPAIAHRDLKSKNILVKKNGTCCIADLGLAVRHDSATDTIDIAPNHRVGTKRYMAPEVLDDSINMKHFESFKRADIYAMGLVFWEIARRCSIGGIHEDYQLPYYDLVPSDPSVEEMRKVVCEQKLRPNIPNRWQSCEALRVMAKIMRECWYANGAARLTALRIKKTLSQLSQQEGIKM

## Cc1ccc2c(Nc3ccc(Cl)cc3)nccc2c1Nc1ncccc1-c1ncnc2[nH]cnc12.Cl.Cl.Cl
[1]
  Activity: 89%
[2]
  Activity: 85%
[3]
  Activity: 94%
[4]
  Activity: 100%
[5]
  Activity: 98%
[6]
  Activity: 98%
[7]
  Activity: 100%
[8]
  Activity: 100%
[9]
  Activity: 16%
[10]
  Activity: 2.2%
[11]
  Activity: 96%
[12]
  Activity: 100%
[13]
  Activity: 100%
[14]
  Activity: 36%
[15]
  Activity: 71%
[16]
  bioavailability: 80%
[17]
  Activity: 28%
[18]
  Activity: 96%
[19]
  Activity: 97%
[20]
  Activity: 100%
[21]
  Activity: 100%
[22]
  Activity: 64%
[23]
  Activity: 100%
[24]
  Activity: 97%
[25]
  Activity: 88%
[26]
  Activity: 73%
[27]
  Activity: 100%
[28]
  Activity: 100%
[29]
  Activity: 100%
[30]
  Activity: 100%
[31]
  Activity: 86%
[32]
  Activity: 89%
[33]
  Activity: 94%
[34]
  Activity: 98%
[35]
  Activity: 97%
[36]
  Activity: 80%
[37]
  Activity: 9.4%
